Source: US20070191420A1, “Kinase inhibitors” (Devgen NV, priority 2004, published 2007)
Structures can show the parent of a compound that is named as a salt.

What was measured:
Experiment in all cases: Fluorescence polarization (FP) PKC inhibition assay, Protein Kinase C Assay Kit, Red (Invitrogen)
Assay type in all cases: biochemical
PKC zeta = target: T1, PKC zeta (Homo sapiens, UniProt Q05513); settings: enzyme 20 ng/ml, ATP 2.5 μM, substrate […] 1 μM
T1 construct: purchased Invitrogen 9232
T1 sequence (Q05513 1-592): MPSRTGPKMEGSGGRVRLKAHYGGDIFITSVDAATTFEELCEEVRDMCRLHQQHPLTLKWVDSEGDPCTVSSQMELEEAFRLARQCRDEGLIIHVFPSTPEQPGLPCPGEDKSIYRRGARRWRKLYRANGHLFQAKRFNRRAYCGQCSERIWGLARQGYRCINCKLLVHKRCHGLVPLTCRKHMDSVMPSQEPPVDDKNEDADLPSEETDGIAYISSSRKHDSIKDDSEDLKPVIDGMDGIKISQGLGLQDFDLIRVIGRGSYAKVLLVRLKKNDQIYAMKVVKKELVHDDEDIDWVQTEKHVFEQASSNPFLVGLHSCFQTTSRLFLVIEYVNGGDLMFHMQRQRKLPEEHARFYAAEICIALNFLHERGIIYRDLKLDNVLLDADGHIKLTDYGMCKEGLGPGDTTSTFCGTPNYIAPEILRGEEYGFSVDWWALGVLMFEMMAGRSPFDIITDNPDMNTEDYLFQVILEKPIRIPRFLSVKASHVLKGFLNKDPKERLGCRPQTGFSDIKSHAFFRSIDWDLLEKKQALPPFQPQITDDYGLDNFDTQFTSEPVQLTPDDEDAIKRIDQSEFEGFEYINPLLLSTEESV
Procedure: (§1) To perform the assay, 2 μl of a solution of the compound to be tested in DMSO (at each concentration) was added to 6 μl of a solution of the enzyme in 10 mM HEPES, 5 mM dithiotreitol, 0.1% Triton X-100, pH 7,4.
(§2) After incubating for 30 minutes at room temperature, 4 μl of a mixture of ATP and the protein substrate in 60 mM HEPES (pH7.4), 15 mM MgCl2, 0.3 mM CaCl2, 0.06% NP40 was added.
(§3) After incubating for 80 minutes at room temperature, 3 μl of a mix solution of 500 mM EDTA (stop solution) and the Rhodamine-based PKC Red Tracer (from the Protein Kinase C Assay Kit) in BGG/phosphate buffer (pH7.4) with 0.02% NaN3 and 0.1% Triton X-100 was added and 5 μl of a the Anti-Phosphoserine antibody (also from the Protein Kinase C Assay Kit) in BGG/phosphate buffer (pH7.4) with 0.02% NaN3.
(§4) The results were fitted to a curve using the XL-Fit algorithm and IC50 values were calculated for each fitted curve, again using the XL-Fit algorithm.

PKC gamma = target: T2, PKC gamma (Homo sapiens, UniProt P05129); settings: enzyme 20 ng/ml, ATP 2.5 μM, substrate […] 1 μM
T2 construct: purchased Invitrogen 9343
Procedure: (§5) The substrate used was […]
as §1, §2, §3, §4

PKC epsilon = target: T3, PKC epsilon (Homo sapiens, UniProt Q02156); settings: enzyme 10 ng/ml, ATP 2.5 μM, substrate […] 1 μM
T3 construct: purchased Invitrogen 6906
T3 sequence (Q02156 1-737): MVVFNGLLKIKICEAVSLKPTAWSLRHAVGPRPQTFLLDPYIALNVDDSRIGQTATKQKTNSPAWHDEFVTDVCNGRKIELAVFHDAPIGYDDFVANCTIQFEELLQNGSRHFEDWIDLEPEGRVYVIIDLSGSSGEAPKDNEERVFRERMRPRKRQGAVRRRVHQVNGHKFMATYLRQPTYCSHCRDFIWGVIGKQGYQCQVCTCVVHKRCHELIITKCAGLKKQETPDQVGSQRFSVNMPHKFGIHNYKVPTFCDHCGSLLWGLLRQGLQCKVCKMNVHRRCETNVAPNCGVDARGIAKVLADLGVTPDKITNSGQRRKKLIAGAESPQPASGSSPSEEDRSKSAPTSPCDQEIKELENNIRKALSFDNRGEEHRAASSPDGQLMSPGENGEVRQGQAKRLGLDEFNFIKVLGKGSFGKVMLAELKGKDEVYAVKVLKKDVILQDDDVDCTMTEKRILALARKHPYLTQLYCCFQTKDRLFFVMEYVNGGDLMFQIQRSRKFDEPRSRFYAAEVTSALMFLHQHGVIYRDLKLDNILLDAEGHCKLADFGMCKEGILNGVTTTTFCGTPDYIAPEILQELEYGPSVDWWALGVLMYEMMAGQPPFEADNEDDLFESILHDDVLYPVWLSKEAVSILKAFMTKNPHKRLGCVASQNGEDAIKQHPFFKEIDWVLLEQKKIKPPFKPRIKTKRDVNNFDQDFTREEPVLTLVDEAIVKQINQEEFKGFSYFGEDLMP
Procedure: as §5, §1, §2, §3, §4

PKC theta = target: T4, PKC theta (Homo sapiens, UniProt Q04759); settings: enzyme 20 ng/ml, ATP 2.5 μM, substrate […] 1 μM
T4 construct: purchased Invitrogen 7101
Procedure: as §5, §1, §2, §3, §4

T4 sequence (Q04759 whole entry): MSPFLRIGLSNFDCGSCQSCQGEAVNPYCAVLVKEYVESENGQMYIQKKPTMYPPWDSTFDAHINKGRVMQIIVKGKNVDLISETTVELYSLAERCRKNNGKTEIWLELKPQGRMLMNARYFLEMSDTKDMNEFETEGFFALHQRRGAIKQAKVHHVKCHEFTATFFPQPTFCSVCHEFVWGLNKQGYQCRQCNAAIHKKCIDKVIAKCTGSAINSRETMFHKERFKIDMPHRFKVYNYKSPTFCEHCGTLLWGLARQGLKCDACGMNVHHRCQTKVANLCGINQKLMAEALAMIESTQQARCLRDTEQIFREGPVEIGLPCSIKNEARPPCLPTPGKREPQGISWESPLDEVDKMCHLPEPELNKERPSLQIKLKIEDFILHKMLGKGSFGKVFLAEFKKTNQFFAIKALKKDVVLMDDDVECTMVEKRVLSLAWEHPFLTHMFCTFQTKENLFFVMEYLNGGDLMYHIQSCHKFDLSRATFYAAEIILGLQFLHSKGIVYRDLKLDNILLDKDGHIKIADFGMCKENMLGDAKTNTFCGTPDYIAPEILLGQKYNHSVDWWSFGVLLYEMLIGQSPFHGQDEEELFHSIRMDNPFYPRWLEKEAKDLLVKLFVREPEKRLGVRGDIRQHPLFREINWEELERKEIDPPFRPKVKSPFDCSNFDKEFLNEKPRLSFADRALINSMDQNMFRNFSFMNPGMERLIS

SMILES	IC50 (PKC zeta) [µM]	IC50 (PKC gamma) [µM]	IC50 (PKC epsilon) [µM]	IC50 (PKC theta) [µM]
NCc1ccc(-c2nc(-c3ccncc3)no2)cc1 [Compound 13, 4-(3-pyridin-4-yl-[1,2,4]oxadiazol-5-yl-benzylaminedihydrochloric acid salt]	> 100	> 100	> 100	> 100
NCc1ccc(-c2nc3ccncc3[nH]2)cc1 [Compound 14, 4-(3H-imidazo[4,5-c]pyridine-2-yl)-benzylamine]	> 100	> 100	> 100	> 100
NCc1ccc(C(=O)Nc2ccncc2)o1 [Compound 15, 5-(amino-methyl)-furan-2-carboxylic acid pyridine-4-ylamide dihydrochloric acid salt]	> 100	> 100	> 100	> 100
CC(=O)NCc1ccc(C(=O)Nc2ccncc2)cc1 [Compound 16]	> 100	> 100	> 100	> 100
CC(c1ccc(C(=O)Nc2ccncc2)cc1)N(C)C (stereo not shown) [Compound 17]	> 100	> 100	> 100	> 100
NC[C@H]1CC[C@H](C(=O)Nc2ccncc2)CC1 [Compound 19, Trans-4-aminomethyl-cyclohexanecarboxylic acid pyridin-4-ylamide]	24.3	> 100	5.12	7.35
NCc1ccc(C(=O)Nc2ccncc2)cc1 [Compound 20, 4-aminomethyl-N-pyridin-4-yl-benzamide dihydrochloric acid salt]	51.4	> 100	6.23	9.14
NCc1ccc(C(=O)Nc2ccncn2)cc1 [Compound 21, 4-aminomethyl-N-pyrimidin-4-yl-benzamide dihydrochloric acid salt]	> 100	> 100	34.4	87.2
CC(N)c1ccc(C(=O)Nc2ccncc2)cc1 (stereo not shown) [Compound 23, 4-(1-amino-ethyl)-N-pyridin-4-yl-benzamide dihydrochloric acid salt]	22.1	> 100	1.21	2.25
CCC(N)c1ccc(C(=O)Nc2ccncc2)cc1 (stereo not shown) [Compound 24, 4-(1-amino-propyl)-N-pyridin-4-yl-benzamide dihydrochloric acid salt]	25.4	> 30	0.65	2.91
CC(C)(C)CC(N)c1ccc(C(=O)Nc2ccncc2)cc1 (stereo not shown) [Compound 25, 4-(1-amino-3,3-dimethyl-butyl)-N-pyridin-4-yl-benzamide dihydrochloric acid salt]	> 100	> 100	4.98	12.2
NC(c1ccc(C(=O)Nc2ccncc2)cc1)C1CC1 (stereo not shown) [Compound 26]	41.5	35.9	0.72	3.9
NC(c1ccc(C(=O)Nc2ccncc2)cc1)C1CCCC1 (stereo not shown) [Compound 27]	70	76	0.94	1.7
NC(c1ccc(C(=O)Nc2ccncc2)cc1)C1CCCCC1 (stereo not shown) [Compound 28]	> 100	> 100	2.6	7.7
NC1CCCc2cc(C(=O)Nc3ccncc3)ccc21 (stereo not shown) [Compound 29]	> 100	> 100	6.1	13.7
O=C(Nc1ccncc1)c1ccc(C2CCCN2)cc1 (stereo not shown) [Compound 30, N-pyridin-4-yl-4-pyrrolidin-2-yl-benzamide dihydrochloric acid salt]	> 100	> 100	9.8	17.2
O=C(Nc1ccncc1)c1ccc(C2CCCCN2)cc1 (stereo not shown) [Compound 31, 4-piperidin-2-yl-N-pyridin-4-yl-benzamide dihydrochloric acid salt]	> 100	> 100	3.7	8.04
O=C(Nc1ccncc1)c1ccc2c(c1)CCNC2 [Compound 32, 1,2,3,4-tetrahydro-isoquinoline-6-carboxylic acid pyridinedin-4-yl-amide dihydrochloric acid salt]	> 100	> 100	30.5	31.6
O=C(Nc1ccncc1)c1ccc(C2=NCCN2)cc1 [Compound 33, 4-(4,5-dihydro-1H-imidazol-2-yl)-N-pyridin-4-yl-benzamide]	> 100	> 100	62	53.5
O=C(Nc1ccncc1)c1ccc(C2=NCCCN2)cc1 [Compound 34, N-pyridin-4-yl-4-(1,4,5,6-tetrahydro-1H-pyrimidin-2-yl)-benzamide]	> 100	> 100	19.5	75
NC(c1ccccc1)c1ccc(C(=O)Nc2ccncc2)cc1 (stereo not shown) [Compound 35, 4-(1-amino-phenyl-methyl)-N-pyridin-4-yl-benzamide]	> 100	> 100	8.04	11.3
NC(c1ccc(F)cc1)c1ccc(C(=O)Nc2ccncc2)cc1 (stereo not shown) [Compound 36, 4-[1-amino-(4-fluorophenyl)-methyl]-N-pyridin-4-yl-benzamide dihydrochloric acid salt]	> 100	> 100	9.5	28.9
COc1ccc(C(N)c2ccc(C(=O)Nc3ccncc3)cc2)cc1 (stereo not shown) [Compound 37, 4-[1-amino-(4-methoxyphenyl)-methyl]-N-pyridin-4-yl-benzamide]	> 100	> 100	18.7	80.3
CC(N)c1ccc(C(=O)Nc2ccncc2)c2ccccc12 (stereo not shown) [Compound 38, 4-(1-amino-ethyl)-naphthalene-1-carboxylic acid pyridinedin-4-ylamide dihydrochloric acid salt]	6.4	> 100	2.5	7.8
CC(N)c1ccc(C(=O)Nc2ccnc3[nH]ccc23)cc1 (stereo not shown) [Compound 41, 4-(1-amino-ethyl)-N-(1H-pyrrolo[2,3pyridinedin-4-yl)-benzamidedihydrochloric acid salt]	> 100	11.3	0.4	0.77
NC(c1ccc(C(=O)Nc2ccnc3[nH]ccc23)cc1)C1CCCC1 (stereo not shown) [Compound 42]	> 100	17.3	0.3	0.63
O=C(Nc1ccnc2[nH]ccc12)c1ccc2c(c1)CCNC2 [Compound 43]	> 100	21.8	9.9	8.6
O=C(Nc1ccnc2[nH]ccc12)c1ccc(C2CCCCN2)cc1 (stereo not shown) [Compound 44, 4-piperidin-2-yl-N-(1H-pyrrolo[2,3pyridinedin-4-yl)-benzamidedihydrobromic acid salt]	> 100	30.7	1.6	2.2
